Measured values from US20200205401A1, “LACTONES AS SOLVENTS IN AGROCHEMICAL FORMULATIONS” (priority 2017, published 2020).
“And” between values parts separate entries of the source, which are not always exact repeats. Equal entries are not always repeated. Structures can show the parent of a compound that is named as a salt. Where two headings read alike, the source gives them in different places.

Assays:
[1] = Azoxystrobin dissolved in organic liquid, diluted with 20 volumes of water, visual assessment of layers or crystals; assay type: physicochemical; conditions: water 20 times the solvent volume, assessed visually at 48 hours
Experimental: Azoxystrobin was dissolved in a range of organic liquids, some of which are known to be solvents for agrochemicals, at room temperature and allowed to equilibrate. A measured quantity of water was added and each mixture was shaken. The volume of water was 20 times greater than the volume of organic liquid/solvent. After settling the samples were assessed as being either (i) split into two layers with no evidence of pesticide crystalisation, or (ii) identified as a single layer where the pesticide had precipitated out as crystals.
Samples were assessed after 24 and 48 hours. The log P octanol values for the solvents have been taken from the literature or, where this value was not available, were estimated using the program ProPred™ (ICAS ProPred™, KT Consortium, DTU Kemiteknik, Lyngby, Denmark). Where values were estimated, a simple check was carried out using measuring cylinders with 50/50 volumes of octanol and water. Solvent was added to the cylinder until a clear observation of the effect of the addition was apparent.

[2] = solvents of Table 2/3; literature, or estimated with ProPred where not available; cited from earlier work
[3] = Azoxystrobin dissolved in organic liquid, diluted with 20 volumes of water, visual assessment of layers or crystals; assay type: physicochemical
[4] = log P octanol by octanol saturated chromatography column; assay type: physicochemical; conditions: octanol/water (octanol saturated chromatography column); 25° C., pH 6.98; read-out: octanol water partition coefficient (log P octanol)
From the text: Samples of gamma caprolactone were examined using an octanol saturated chromatography column.

[5] = Aqueous solubility of gamma caprolactone by HPLC; assay type: physicochemical; conditions: calculated mean of a set of six measurements
Experimental: The aqueous solubility of gamma caprolactone was measured using HPLC chromatography. Several samples of the lactone were equilibrated at room temperature with an equal volume of water. The samples were left for two weeks then analysed by HPLC.

[6] = 5% w/w solutions of agrochemicals in solvent diluted into water 20:1, appearance; assay type: physicochemical; conditions: for APPEARANCE OF FORMULATION, Difenoconazole: 5% w/w difenoconazole in solvent; for APPEARANCE OF FORMULATION, Difenoconazole / APPEARANCE OF FORMULATION, Fludioxonil / APPEARANCE OF FORMULATION, Mandipropamid / APPEARANCE OF FORMULATION, Pinoxaden: diluted into water 20:1; for APPEARANCE OF FORMULATION, Fludioxonil: 5% w/w fludioxonil in solvent; for APPEARANCE OF FORMULATION, Mandipropamid: 5% w/w mandipropamid in solvent; for APPEARANCE OF FORMULATION, Pinoxaden: 5% w/w pinoxaden in solvent; for appearance with each of the agrochemical active ingredients: mandipropamid, fludioxonil, pinoxaden, difenoconazole, 5% w/w, diluted 20:1
Experimental: In this example several pesticidally active agrochemical ingredients (mandipropamid, fludioxonil, pinoxaden, and difenoconazole) were dissolved in each of the three solvents to give solutions of 5% w/w. Each solution was then diluted into water to form a 20:1 mixture.

[7] = 20° C.; cited from earlier work

Row | Compound | APPEARANCE (azoxystrobin solution in solvent after addition of water) [1] | logP octanol [2] | other results
1 | CC(=O)c1ccccc1 [Acetophenone] | 2 layer | – | –
2 | OCc1ccccc1 [Benzyl alcohol] | 2 layer | – | –
3 | CCCCOC(=O)c1ccccc1 [Butyl benzoate] | 2 layer | – | –
4 | OC1CCCCC1 [Cyclohexanol] | 2 layer | – | –
5 | CCOC(=O)/C=C/C(=O)OCC [Diethyl fumarate] | 2 layer | – | –
6 | CCCCCCOCCOCCO [Diethylene glycol hexyl ether] | 2 layer | 2.16 | –
7 | CC(O)C(=O)N(C)C (stereo not drawn) [Dimethyl lactamide] | Crystallised | −0.22 | –
8 | COC(C)COC(C)CO (stereo not drawn) [Dipropylene glycol monomethyl ether] | Crystallised | – | –
9 | OCCO [Ethylene glycol] | – | – | APPEARANCE (azoxystrobin solution in solvent after addition of water) [3]: Crystallised
10 | COC(=O)c1ccccc1 [Methyl benzoate] | 2 layer | 1.85 | –
11 | COC(=O)C(C)O (stereo not drawn) [Methyl lactate] | Crystallised | – | –
12 | CCCOC(=O)c1ccccc1 [Propyl benzoate] | 2 layer | – | –
13 | CCCOC(=O)C(C)O (stereo not drawn) [Propyl lactate] | 2 layer | – | –
14 | CC(=O)OCC(C)OC(C)=O (stereo not drawn) [Propylene glycol diacetate] | Crystallised | 0.94 | –
15 | CCCCOCC(C)O (stereo not drawn) [Propylene glycol n-butyl ether] | 2 layer | – | –
16 | CC(=O)OCC(COC(C)=O)OC(C)=O [Triacetin] | 2 layer | – | –
17 | CCOP(=O)(OCC)OCC [Triethyl phosphate] | Crystallised | 0.28 | –
18 | O=C1CCCO1 [γ-Butyrolactone] | Crystallised | −0.60 | –
19 | CCC1CCC(=O)O1 (stereo not drawn) [γ-Caprolactone, 5-ethyltetrahydrofuran-2-one] | – | – | appearance after further 100-fold dilution in water [3]: two layers still did not become miscible; chromatographic logP [4]: 0.34; Aqueous solubility, Mean [5]: 10.93 % w/w and 11.01 % w/w; APPEARANCE OF FORMULATION, Difenoconazole [6]: 2 layers; APPEARANCE OF FORMULATION, Fludioxonil [6]: 2 layers; APPEARANCE OF FORMULATION, Mandipropamid [6]: 2 layer; APPEARANCE OF FORMULATION, Pinoxaden [6]: 2 layers; appearance with each of the agrochemical active ingredients [6]: two-layer system
20 | CC1CCC(=O)O1 (stereo not drawn) [γ-Valerolactone] | Crystallised | 0.21 | –
21 | O=C1CCCCO1 [δ-Valerolactone] | Crystallised | −0.26 | –
22 | O=C1CCCCCO1 [ε-Caprolactone] | Crystallised | 0.70 | –
23 | Butylene carbonate | 2 layer | 1.21 | –
24 | Diethylene carbonate | – | – | APPEARANCE (azoxystrobin solution in solvent after addition of water) [3]: 2 layer
25 | Hexylene glycol | Crystallised | – | miscibility with water [7]: fully miscible; APPEARANCE OF FORMULATION, Difenoconazole [6]: Crystallised; APPEARANCE OF FORMULATION, Fludioxonil [6]: Crystallised; APPEARANCE OF FORMULATION, Mandipropamid [6]: Crystallised; APPEARANCE OF FORMULATION, Pinoxaden [6]: Crystallised; appearance with each of the agrochemical active ingredients [6]: crystallisation
